Source: the C3SDB collision cross section collection

Conditions: [M+H]+; instrument: TW; Major Mix IMS/Tof Calibration Kit (Waters)

SMILES | collision cross section (N2)
Cc1nnc2n1-c1ccc(Cl)cc1C(c1ccccc1Cl)=NC2 [Triazolam] | 172.4 Å²
CCC(=O)O[C@](Cc1ccccc1)(c1ccccc1)[C@H](C)CN(C)C [Dextropropoxyphene] | 180.7 Å²
CN1CC[C@]23c4c5ccc(O)c4O[C@H]2C(=O)CC[C@@]3(O)[C@H]1C5 [Oxymorphone] | 164.6 Å²
CNC(C)C(=O)c1ccc(C)cc1 (centres undefined) [Mephedrone] | 143.1 Å²
COc1ccc2c(c1)[C@]13CCCC[C@@H]1[C@H](C2)N(C)CC3 [Dextromethorphan] | 166.3 Å²
CN(C)CCC(c1ccc(Cl)cc1)c1ccccn1 (centres undefined) [Chlorphenamine] | 164.5 Å²
CN1CC[C@]23c4c5ccc(O)c4O[C@H]2C(=O)CC[C@H]3[C@H]1C5 [Hydromorphone] | 163.9 Å²
CC(=O)c1ccc2c(c1)N(CCCN(C)C)c1ccccc1S2 [Acepromazine] | 176.6 Å²
CCCCN1CCCCC1C(=O)Nc1c(C)cccc1C (centres undefined) [Bupivacaine] | 173.1 Å²
Cn1c(=O)c2c(ncn2C)n(C)c1=O [Caffeine] | 138.3 Å²
CC(C)CC(N(C)C)C1(c2ccc(Cl)cc2)CCC1 (centres undefined) [Sibutramine] | 168 Å²
COc1cc(CCNCc2ccccc2OC)c(OC)cc1Cl [25C-NBOMe] | 177.6 Å²
COc1cccc([C@@]2(O)CCCC[C@@H]2CN(C)C)c1 [Tramadol] | 161.4 Å²
Clc1cccc(N2CCNCC2)c1 [mCPP] | 144.3 Å²
CNC(=O)CSP(=S)(OC)OC [Dimethoate] | 139.9 Å²
CN(C)CC1CCCCC1(O)c1cccc(O)c1 (centres undefined) [Tramadol-M O-desmethyl] | 157.4 Å²
CNCC/C=C1/c2ccccc2Sc2ccc(Cl)cc21 [Chlorprothixene-M N-desmethyl] | 165.9 Å²
CCN(CC)[C@@H](C)[C@H](O)c1ccccc1 [N-diethylnorephedrine] | 144.6 Å²
COc1cc(CCN)c(OC)cc1Br [2C-B] | 155.6 Å²

SMILES | collision cross section (N2)
O=C(O)C(c1ccccc1)C1CCCCN1 (centres undefined) [Ritalinic acid] | 150 Å²
Cc1ccc(-c2cc(C(F)(F)F)nn2-c2ccc(S(N)(=O)=O)cc2)cc1 [Celecoxib] | 186.4 Å²
C[C@H](CS)C(=O)N1CCC[C@H]1C(=O)O [Captopril] | 142.5 Å²
CN1[C@H]2CC[C@@H]1[C@@H](C(=O)O)[C@@H](OC(=O)c1ccccc1)C2 [Benzoylecgonine] | 167.3 Å²
CN1CC[C@]23CCCC[C@H]2[C@H]1Cc1ccc(O)cc13 [Levorphanol] | 161.7 Å²
O=C1CC[C@@]2(O)[C@H]3Cc4ccc(O)c5c4[C@@]2(CCN3CC2CC2)[C@H]1O5 [Naltrexone] | 176.5 Å²
CC(C)(C)NCC(O)c1ccccc1Cl (centres undefined) [Tulobuterol] | 150.5 Å²
CNCCCN1c2ccccc2Sc2ccc(Cl)cc21 [Chlorpromazine-M norl] | 168.7 Å²
CN1C(=O)CN=C(c2ccccc2F)c2cc(N)ccc21 [Flunitrazepam-M 7-amino] | 163.1 Å²
COc1cc2c(cc1OC)C1CC(=O)C(CC(C)C)CN1CC2 (centres undefined) [Tetrabenazine] | 182.6 Å²
CC(NC(C)(C)C)C(=O)c1cccc(Cl)c1 (centres undefined) [Bupropion] | 157.8 Å²
CNC(C)C(=O)c1ccc2c(c1)OCO2 (centres undefined) [Methylone] | 147.3 Å²
NC1CC1c1ccccc1 (centres undefined) [Tranylcypromine] | 127.6 Å²
CCC(=O)C1(c2cccc(O)c2)CCN(C)CC1 [Ketobemidone] | 159.7 Å²
CN1CC[C@]23c4c5ccc(O)c4O[C@H]2[C@@H](O)CC[C@H]3[C@H]1C5 [Dihydromorphine] | 163.6 Å²
CCN(CC)C(C)C(=O)c1ccccc1 (centres undefined) [Amfepramone] | 148 Å²
CNC1=Nc2ccc(Cl)cc2C(c2ccccc2)=[N+]([O-])C1 [Chlordiazepoxide] | 170.4 Å²
CN1C(=O)C(O)N=C(c2ccccc2)c2cc(Cl)ccc21 (centres undefined) [Temazepam] | 166.1 Å²

Further lines, results first:

collision cross section (N2) | SMILES
209.9 Å² | Cc1nc2n(c(=O)c1CCN1CCC(c3noc4cc(F)ccc34)CC1)CCCC2O (centres undefined) [Risperidone-M 9-hydroxy]
149.6 Å² | c1ccc2c(CC3=NCCN3)cccc2c1 [Naphazoline]
180.2 Å² | CCN(CCO)CCCC(C)Nc1ccnc2cc(Cl)ccc12 (centres undefined) [Hydroxychloroquine]
202.9 Å² | COc1cc2nc(N3CCN(C(=O)C4COc5ccccc5O4)CC3)nc(N)c2cc1OC (centres undefined) [Doxazosin]
172 Å² | CC(C)(C)NCC(O)COc1cccc2c1C[C@H](O)[C@H](O)C2 (some centres undefined) [Nadolol]
174.3 Å² | CNS(=O)(=O)CCc1ccc2[nH]cc(C3CCN(C)CC3)c2c1 [Naratriptan]
194 Å² | OCCN1CCN(CC/C=C2/c3ccccc3Sc3ccc(Cl)cc32)CC1 [Zuclopenthixol]
171.7 Å² | Cc1nccn1CC1CCc2c(c3ccccc3n2C)C1=O (centres undefined) [Ondansetron]
198.1 Å² | COc1cc2c(cc1OC)C(=O)C(CC1CCN(Cc3ccccc3)CC1)C2 (centres undefined) [Donepezil]
201 Å² | CC(CN1CCN(CCOCCO)CC1)CN1c2ccccc2Sc2ccccc21 (centres undefined) [Dixyrazine]
157.7 Å² | O=C(O)Cc1ccccc1Nc1c(Cl)cccc1Cl [Diclofenac]
156.5 Å² | CN/C(=N\C#N)NCCSCc1nc[nH]c1C [Cimetidine]
182.1 Å² | Cc1ccc(O)c([C@H](CCN(C(C)C)C(C)C)c2ccccc2)c1 [Tolterodine]
212.7 Å² | CCCc1nn(C)c2c(=O)[nH]c(-c3cc(S(=O)(=O)N4CCN(C)CC4)ccc3OCC)nc12 [Sildenafil]
175.7 Å² | CN1CCN(C2=Nc3ccccc3Oc3ccc(Cl)cc32)CC1 [Loxapine]
162.7 Å² | CC(C)NCC(O)COc1cccc2ccccc12 (centres undefined) [Propranolol]
225.8 Å² | CCCc1nc(C)c2c(=O)nc(-c3cc(S(=O)(=O)N4CCN(CC)CC4)ccc3OCC)[nH]n12 [Vardenafil]
163.3 Å² | CNCCCN1c2ccccc2CCc2ccccc21 [Imipramine-M Nor]
189.4 Å² | CN1CC(=O)N2[C@H](c3ccc4c(c3)OCO4)c3[nH]c4ccccc4c3C[C@@H]2C1=O [Tadalafil]
180.1 Å² | CN(C)CCCC1(c2ccc(F)cc2)OCc2cc(C#N)ccc21 (centres undefined) [Citalopram]
204.7 Å² | COc1ccc(Cl)cc1C(=O)NCCc1ccc(S(=O)(=O)NC(=O)NC2CCCCC2)cc1 [Glyburide]

collision cross section (N2) | SMILES
160.3 Å² | CN(C)CCc1c[nH]c2ccc(Cn3cncn3)cc12 [Rizatriptan]
215.9 Å² | O=C1NCCN1CCN1CCC(c2cn(-c3ccc(F)cc3)c3ccc(Cl)cc23)CC1 [Sertindol]
164.7 Å² | CN(C)CCC=C1c2ccccc2C=Cc2ccccc21 [Cyclobenzaprine]
166.8 Å² | CC(=O)CC(c1ccccc1)c1c(O)c2ccccc2oc1=O (centres undefined) [Warfarin]
210.2 Å² | COc1ccc(CCN(C)CCCC(C#N)(c2ccc(OC)c(OC)c2)C(C)C)cc1OC (centres undefined) [Verapamil]
154.9 Å² | CC(C)(C)NCC(O)c1cc(O)cc(O)c1 (centres undefined) [Terbutaline]
186 Å² | FC(F)(F)c1ccc2c(c1)C(=CCCN1CCNCC1)c1ccccc1S2 [Flupentixol-M N-desalkyl]
194.1 Å² | NC(=O)C1(N2CCCCC2)CCN(CCCC(=O)c2ccc(F)cc2)CC1 [Pipamperone]
167.3 Å² | CN(C)CCC=C1c2ccccc2CSc2ccccc21 [Dosulepin]
249.8 Å² | COC(=O)C1=C(C)NC(C)=C(C(=O)OC(C)(C)CN(C)CCC(c2ccccc2)c2ccccc2)C1c1cccc([N+](=O)[O-])c1 (centres undefined) [Lercanidipine]
166.7 Å² | CN1CCN(C(c2ccccc2)c2ccccc2)CC1 [Cyclizine]
161.9 Å² | CN(C)CCOC(C)(c1ccccc1)c1ccccn1 (centres undefined) [Doxylamine]
149.4 Å² | Clc1ccc2nsnc2c1NC1=NCCN1 [Tizanidine]
186.3 Å² | COc1ccc([C@@H]2Sc3ccccc3N(CCN(C)C)C(=O)[C@@H]2O)cc1 [Diltiazem-M deacetyl]
243 Å² | CC(C)(O)c1ccccc1CC[C@@H](SCC1(CC(=O)O)CC1)c1cccc(/C=C/c2ccc3ccc(Cl)cc3n2)c1 [Montelukast]
151.2 Å² | Nc1nnc(-c2cccc(Cl)c2Cl)c(N)n1 [Lamotrigine]
196.8 Å² | O=S1c2ccccc2/C(=C\CCN2CCN(CCO)CC2)c2cc(C(F)(F)F)ccc21 (centres undefined) [Flupentixol-M sulphoxide]
161.7 Å² | C=CCOc1ccccc1OCC(O)CNC(C)C (centres undefined) [Oxprenolol]
178.1 Å² | CC(CCc1ccccc1)NCC(O)c1ccc(O)c(C(N)=O)c1 (centres undefined) [Labetalol]
148.6 Å² | NC(=O)c1cn(Cc2c(F)cccc2F)nn1 [Rufinamide]
163.7 Å² | CC(CN1c2ccccc2Sc2ccccc21)N(C)C (centres undefined) [Promethazine]
